Measurements taken from patent publication US11078197B2, “5-membered and bicyclic heterocyclic amides as inhibitors of rock” (BRISTOL-MYERS SQUIBB COMPANY, priority 2017, dated 2021).

Molecular target: ROCK2 (Homo sapiens (Human), UniProt O75116)
Assay: ROCK2 assay (peptide phosphorylation, LABCHIP 3000 Reader)
Assay type: biochemical
Details: 5 μM ATP, 1.5 μM peptide substrate, dose-response
Experimental: After incubation, the reaction was terminated by the addition of EDTA and the phosphorylated and non-phosphorylated peptides separated using a LABCHIP®3000 Reader (Caliper Life Sciences). […] Compounds were tested in dose-response format, and the inhibition of kinase activity was calculated at each concentration of compound. […] Representative Examples were tested in the ROCK2 assay described above and found having ROCK2 inhibitory activity.

Chain of ROCK2 (O75116 whole entry, species assumed): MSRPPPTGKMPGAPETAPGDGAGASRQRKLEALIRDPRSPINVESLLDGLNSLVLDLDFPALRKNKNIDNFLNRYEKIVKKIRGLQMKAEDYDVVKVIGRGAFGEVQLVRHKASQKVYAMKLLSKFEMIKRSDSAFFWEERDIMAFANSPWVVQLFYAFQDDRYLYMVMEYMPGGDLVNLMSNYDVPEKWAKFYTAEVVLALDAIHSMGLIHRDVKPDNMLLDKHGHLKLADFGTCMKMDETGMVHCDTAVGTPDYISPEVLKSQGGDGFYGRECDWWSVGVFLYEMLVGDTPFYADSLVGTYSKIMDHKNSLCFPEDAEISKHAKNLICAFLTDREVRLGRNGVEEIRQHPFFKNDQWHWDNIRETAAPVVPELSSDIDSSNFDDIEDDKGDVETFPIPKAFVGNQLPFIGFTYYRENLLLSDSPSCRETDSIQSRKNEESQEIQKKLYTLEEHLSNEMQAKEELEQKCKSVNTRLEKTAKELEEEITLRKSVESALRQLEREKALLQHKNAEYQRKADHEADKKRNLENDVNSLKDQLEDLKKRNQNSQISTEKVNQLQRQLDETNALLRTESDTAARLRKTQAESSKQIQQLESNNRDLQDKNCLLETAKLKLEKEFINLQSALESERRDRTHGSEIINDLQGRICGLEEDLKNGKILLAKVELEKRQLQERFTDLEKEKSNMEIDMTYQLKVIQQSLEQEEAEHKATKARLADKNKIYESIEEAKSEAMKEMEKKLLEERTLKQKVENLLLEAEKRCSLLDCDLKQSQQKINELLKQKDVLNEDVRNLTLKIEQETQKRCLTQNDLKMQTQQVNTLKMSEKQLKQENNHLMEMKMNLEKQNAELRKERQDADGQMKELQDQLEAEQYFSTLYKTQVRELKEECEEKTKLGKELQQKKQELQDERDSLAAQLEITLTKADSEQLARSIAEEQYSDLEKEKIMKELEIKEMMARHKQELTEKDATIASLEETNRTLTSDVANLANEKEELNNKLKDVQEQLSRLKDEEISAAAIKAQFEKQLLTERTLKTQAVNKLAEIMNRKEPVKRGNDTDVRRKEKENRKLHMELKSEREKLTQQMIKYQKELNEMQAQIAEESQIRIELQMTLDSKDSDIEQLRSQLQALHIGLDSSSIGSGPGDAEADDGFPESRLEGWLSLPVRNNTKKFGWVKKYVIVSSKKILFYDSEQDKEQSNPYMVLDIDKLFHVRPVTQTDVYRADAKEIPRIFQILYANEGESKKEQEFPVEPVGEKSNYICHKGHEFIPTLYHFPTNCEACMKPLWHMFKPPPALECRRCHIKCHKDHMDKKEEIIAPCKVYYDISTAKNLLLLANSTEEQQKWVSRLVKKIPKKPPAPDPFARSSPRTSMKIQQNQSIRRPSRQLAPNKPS

SMILES | IC50 [nM]
Cc1c(C(=O)N[C@H]2C[C@]3(C2)C[C@H](Oc2nn(C4CC4)cc2C(N)=O)C3)cnn1-c1ccccc1 (stereo partly drawn) [Example 65, 1-cyclopropyl-3-{[(aR)-6-(5-methyl-1-phenyl-1H-pyrazole-4-amido)spiro[3.3]heptan-2-yl]oxy}-1H-pyrazole-4-carboxamide] | 141
Cc1c(C(=O)N[C@H]2C[C@]3(C2)C[C@H](Oc2nn(C4CC4)cc2C(N)=O)C3)cnn1-c1ccc(F)cc1F (stereo partly drawn) [Example 66, 1-cyclopropyl-3-{[(aR)-6-[1-(2,4-difluorophenyl)-5-methyl-1H-pyrazole-4-amido]spiro[3.3]heptan-2-yl]oxy}-1H-pyrazole-4-carboxamide] | 225
Cc1c(C(=O)N[C@H]2C[C@]3(C2)C[C@H](Oc2nc(C4CC4)sc2C(N)=O)C3)cnn1-c1ccc(F)cc1F (stereo partly drawn) [Example 67, 2-cyclopropyl-4-{[(aR)-6-[1-(2,4-difluorophenyl)-5-methyl-1H-pyrazole-4-amido]spiro[3.3]heptan-2-yl]oxy}-1,3-thiazole-5-carboxamide] | 142
Cc1c(C(=O)N[C@H]2C[C@]3(C2)C[C@H](Oc2nc(C4CC4)sc2C(N)=O)C3)cnn1-c1ccccc1 (stereo partly drawn) [Example 68, 2-cyclopropyl-4-{[(aR)-6-(5-methyl-1-phenyl-1H-pyrazole-4-amido)spiro[3.3]heptan-2-yl]oxy}-1,3-thiazole-5-carboxamide] | 108
Cc1nc(O[C@H]2C[C@@]3(C[C@H](NC(=O)c4cnn5cc(OCC(F)F)ccc45)C3)C2)c(C(N)=O)s1 (stereo partly drawn) [Example 70, 2-methyl-4-{[(aR)-6-[6-(2,2-difluoroethoxy)pyrazolo [1,5-a]pyridine-3-amido]spiro[3.3]heptan-2-yl]oxy}-1,3-thiazole-5-carboxamide] | 45.4
Cc1nn(C)c2nc(OC3CC4(CC(NC(=O)c5cnn6cc(OCC(C)(C)O)ccc56)C4)C3)c(C(N)=O)cc12 (centres unmarked) [Example 73, 6-({6-[6-(2-hydroxy-2-methylpropoxy)pyrazolo [1,5-a]pyridine-3-amido]spiro[3.3]heptan-2-yl}oxy)-1,3-dimethyl-1H-pyrazolo[3,4-b]pyridine-5-carboxamide] | 1160
NC(=O)c1cc2sccc2nc1OC1CC2(CC(NC(=O)C3CCC(F)(F)CC3)C2)C1 (centres unmarked) [Example 77, 5-{[6-(4,4-difluorocyclohexane amido)spiro[3.3]heptan-2-yl]oxy}thieno[3,2-b]pyridine-6-carboxamide] | 634
NC(=O)c1cc2c(nc1OC1CC3(CC(NC(=O)c4cnn5ccccc45)C3)C1)CCOC2 (centres unmarked) [Example 81, 2-[(6-{pyrazolo[1,5-a]pyridine-3-amido}spiro[3.3]heptan-2-yl)oxy]-5H,7H,8H-pyrano[4,3-b]pyridine-3-carboxamide] | 323
N#Cc1cccc(C(=O)N[C@H]2C[C@]3(C2)C[C@H](Oc2nc4c(cc2C(N)=O)COCC4)C3)c1 (stereo partly drawn) [Example 85, 2-{[(aR)-6-(3-cyanobenzamido)spiro[3.3]heptan-2-yl]oxy}-5H,7H,8H-pyrano[4,3-b]pyridine-3-carboxamide] | 144
NC(=O)c1cc2sccc2nc1O[C@H]1C[C@]2(C1)C[C@H](N1C(=O)CN(Cc3ccccc3)CC1=O)C2 (stereo partly drawn) [Example 86, 5-{[(aR)-6-(4-benzyl-2,6-dioxopiperazin-1-yl)spiro[3.3]heptan-2-yl]oxy}thieno[3,2-b]pyridine-6-carboxamide] | 85.9
N#Cc1cc(C(=O)N[C@H]2C[C@]3(C2)C[C@H](Oc2nc4c(cc2C(N)=O)COCC4)C3)ccc1F (stereo partly drawn) [Example 87, 2-{[(aR)-6-(3-cyano-4-fluorobenzamido)spiro[3.3]heptan-2-yl]oxy}-5H,7H,8H-pyrano[4,3-b]pyridine-3-carboxamide] | 156
N#CCc1cccc(C(=O)N[C@H]2C[C@]3(C2)C[C@H](Oc2nc4c(cc2C(N)=O)COCC4)C3)c1 (stereo partly drawn) [Example 88, 2-{[(aR)-6-[3-(cyanomethyl)benzamido]spiro[3.3]heptan-2-yl]oxy}-5H,7H,8H-pyrano[4,3-b]pyridine-3-carboxamide] | 35
N#Cc1ccc(F)c(C(=O)N[C@H]2C[C@]3(C2)C[C@H](Oc2nc4c(cc2C(N)=O)COCC4)C3)c1 (stereo partly drawn) [Example 89, 2-{[(aR)-6-(5-cyano-2-fluorobenzamido)spiro[3.3]heptan-2-yl]oxy}-5H,7H,8H-pyrano[4,3-b]pyridine-3-carboxamide] | 716
COc1ccc(C(=O)N[C@H]2C[C@]3(C2)C[C@H](Oc2nc4c(cc2C(N)=O)COCC4)C3)cc1C#N (stereo partly drawn) [Example 90, 2-{[(aR)-6-(3-cyano-4-methoxybenzamido)spiro[3.3]heptan-2-yl]oxy}-5H,7H,8H-pyrano[4,3-b]pyridine-3-carboxamide] | 114
NC(=O)c1cc2c(nc1O[C@H]1C[C@@]3(C[C@H](NC(=O)c4ccc5[nH]ncc5c4)C3)C1)CCOC2 (stereo partly drawn) [Example 91, N-[(aR)-6-({3-carbamoyl-5H,7H,8H-pyrano[4,3-b]pyridin-2-yl}oxy)spiro[3.3]heptan-2-yl]-1H-indazole-5-carboxamide] | 330
N#Cc1cc(C(=O)N[C@H]2C[C@]3(C2)C[C@H](Oc2nc4c(cc2C(N)=O)COCC4)C3)ccc1Br (stereo partly drawn) [Example 92, 2-{[(aR)-6-(4-bromo-3-cyanobenzamido)spiro[3.3]heptan-2-yl]oxy}-5H,7H,8H-pyrano[4,3-b]pyridine-3-carboxamide] | 191
N#Cc1ccc(C(=O)N[C@H]2C[C@]3(C2)C[C@H](Oc2nc4c(cc2C(N)=O)COCC4)C3)cc1F (stereo partly drawn) [Example 93, 2-{[(aR)-6-(4-cyano-3-fluorobenzamido)spiro[3.3]heptan-2-yl]oxy}-5H,7H,8H-pyrano[4,3-b]pyridine-3-carboxamide] | 1460
Cc1sc2cc(C(N)=O)c(O[C@H]3C[C@@]4(C[C@H](NC(=O)c5cnn6cc(OCC(C)(C)O)ccc56)C4)C3)nc2c1C (stereo partly drawn) [Example 94, 2,3-dimethyl-5-{[(aR)-6-[6-(2-hydroxy-2-methylpropoxy)pyrazolo[1,5-a]pyridine-3-amido]spiro[3.3]heptan-2-yl]oxy}thieno[3,2-b]pyridine-6-carboxamide] | 39
Cc1sc2cc(C(N)=O)c(O[C@H]3C[C@@]4(C[C@H](NC(=O)c5cccc(C#N)c5)C4)C3)nc2c1C (stereo partly drawn) [Example 95, 2,3-dimethyl-5-{[(aR)-6-(3-cyanobenzamido)spiro[3.3]heptan-2-yl]oxy}thieno[3,2-b]pyridine-6-carboxamide] | 79

These reach a lower IC50. Values come first.

IC50 [nM] | SMILES
26.7 | NC(=O)c1cc2sccc2nc1OC1CC2(CC(NC(=O)c3cnn4ccccc34)C2)C1 (centres unmarked) [Example 75, 5-[(6-{pyrazolo[1,5-a]pyridine-3-amido}spiro[3.3]heptan-2-yl)oxy]thieno[3,2-b]pyridine-6-carboxamide]
22.2 | N#Cc1cccc(C(=O)NC2CC3(C2)CC(Oc2nc4ccsc4cc2C(N)=O)C3)c1 (centres unmarked) [Example 79, 5-{[6-(3-cyanobenzamido)spiro[3.3]heptan-2-yl]oxy}thieno[3,2-b]pyridine-6-carboxamide]
20 | CC(C)(O)COc1ccc2c(C(=O)NC3CC4(C3)CC(Oc3nc5c(cc3C(N)=O)COCC5)C4)cnn2c1 (centres unmarked) [Example 82, N-[6-({3-carbamoyl-5H,7H,8H-pyrano[4,3-b]pyridin-2-yl}oxy)spiro[3.3]heptan-2-yl]-6-(2-hydroxy-2-methylpropoxy) pyrazolo[1,5-a]pyridine-3-carboxamide]
11.4 | NC(=O)c1sc(C2CC2)nc1O[C@H]1C[C@@]2(C[C@H](NC(=O)c3nc(C(F)(F)F)n4ccccc34)C2)C1 (stereo partly drawn) [Example 64, 2-cyclopropyl-4-{[(aR)-6-[3-(trifluoromethyl)imidazo[1,5-a]pyridine-1-amido]spiro[3.3]heptan-2-yl]oxy}-1,3-thiazole-5-carboxamide]
9.7 | N#Cc1cccc(C(=O)N[C@H]2C[C@]3(C2)C[C@H](Oc2nc4ccsc4cc2C(N)=O)C3)c1 (stereo partly drawn) [Example 83, 5-{[(aR)-6-(3-cyanobenzamido)spiro[3.3]heptan-2-yl]oxy}thieno[3,2-b]pyridine-6-carboxamide]
8.7 | CC(C)(O)COc1ccc2c(C(=O)N[C@H]3C[C@]4(C3)C[C@H](Oc3nc5ccccc5cc3C(N)=O)C4)cnn2c1C1CC1 (stereo partly drawn) [Example 71, 2-(((aR)6-(7-cyclopropyl-6-(2-hydroxy-2-methylpropoxy)pyrazolo [1,5-a]pyridine-3-carboxamido)spiro [3.3]heptan-2-yl)oxy)quinoline-3-carboxamide]
6.8 | CC(C)(O)COc1ccc2c(C(=O)NC3CC4(C3)CC(Oc3nc5ccsc5cc3C(N)=O)C4)cnn2c1 (centres unmarked) [Example 76, 5-({6-[6-(2-hydroxy-2-methylpropoxy)pyrazolo[1,5-a]pyridine-3-amido]spiro[3.3]heptan-2-yl}oxy)thieno[3,2-b]pyridine-6-carboxamide]
6.1 | NC(=O)c1sc(C2CC2)nc1O[C@H]1C[C@@]2(C[C@H](NC(=O)c3nc(C(F)(F)F)n4cc(-c5ccc(F)nc5)ccc34)C2)C1 (stereo partly drawn) [Example 63, 2-cyclopropyl-4-{[(aR)-6-[6-(6-fluoropyridin-3-yl)-3-(trifluoromethyl)imidazo[1,5-a]pyridine-1-amido]spiro[3.3]heptan-2-yl]oxy}-1,3-thiazole-5-carboxamide]
4.5 | CC(C)(O)COc1ccc2c(C(=O)N[C@H]3C[C@]4(C3)C[C@H](Oc3nn(C5CC5)cc3C(N)=O)C4)cnn2c1C1CC1 (stereo partly drawn) [Example 69, 1-cyclopropyl-3-({(aR)-6-[7-cyclopropyl-6-(2-hydroxy-2-methylpropoxy)pyrazolo [1,5-a]pyridine-3-amido]spiro[3.3]heptan-2-yl}oxy)-1H-pyrazole-4-carboxamide]
2.2 | CC(C)(O)COc1ccc2c(C(=O)N[C@H]3C[C@]4(C3)C[C@H](Oc3nc5ccsc5cc3C(N)=O)C4)cnn2c1 (stereo partly drawn) [Example 84, 6-(2-hydroxy-2-methylpropoxy)-N-[(aR)-6-({6-carbamoylthieno[3,2-b]pyridin-5-yl}oxy)spiro[3.3]heptan-2-yl]pyrazolo[1,5-a]pyridine-3-carboxamide]
